Here are results for 25 compounds from US20060093617A1, “Peptides for inducing a CTL and/or HTL response to hepatitis C virus” (Innogenetics, N.V., priority 2004, published 2006).

Where a SMILES comes first, the peptide text is derived from it.

The first experiment deals with T1, HLA-Cw06 (Homo sapiens, UniProt P10321, A176E/A330V/C350S/L171W/L180W/L218V/M285V/M309V/M331V/N104K/P208H/Q277E/Q291P/R121W/R243W/S101N/S123Y/S297R/T329A/T363A/V319A/V328M).
T1 construct: endogenous in cells
Briefly: HLA class I competition cell-based binding assay.
Turning to `CC[C@H](C)[C@H](NC(=O)[C@@H](NC(=O)[C@@H](N)CCC(=O)O)C(C)C)C(=O)N[C@@H](CCCCN)C(=O)NCC(=O)NCC(=O)N[C@@H](CCCNC(=N)N)C(=O)N[C@@H](Cc1c[nH]cn1)C(=O)N[C@@H](CC(C)C)C(=O)O`, the Ki (commonly the dissociation constant of the complex between target and ligand, obtained from inhibition or displacement) is 12800 nM.

The compound `CC[C@H](C)[C@H](NC(=O)CNC(=O)[C@H](CCCNC(=N)N)NC(=O)[C@H](CCCNC(=N)N)NC(=O)CN)C(=O)N[C@@H](Cc1ccc(O)cc1)C(=O)N[C@@H](CCCNC(=N)N)C(=O)N[C@@H](Cc1ccccc1)C(=O)N[C@H](C(=O)O)C(C)C` registered a Ki of 576 nM.

With `CC(C)C[C@H](NC(=O)CNC(=O)[C@H](CCCNC(=N)N)NC(=O)[C@H](Cc1ccc(O)cc1)NC(=O)[C@H](Cc1ccc(O)cc1)NC(=O)[C@H](C)NC(=O)[C@@H](NC(=O)[C@H](C)NC(=O)[C@@H](N)CC(N)=O)C(C)C)C(=O)O`, the affinity corresponds to a Ki of 10800 nM.

With `CC[C@H](C)[C@H](NC(=O)[C@H](CC(C)C)NC(=O)[C@H](Cc1c[nH]cn1)NC(=O)[C@H](CCCNC(=N)N)NC(=O)CNC(=O)CNC(=O)[C@H](CCCCN)NC(=O)[C@@H](NC(=O)[C@@H](N)C(C)C)[C@@H](C)CC)C(=O)N[C@@H](Cc1ccccc1)C(=O)O`, the Ki is 17500 nM.

As for `CC(C)C[C@H](NC(=O)[C@@H](NC(=O)[C@H](CCC(N)=O)NC(=O)[C@H](CC(C)C)NC(=O)[C@H](CCCNC(=N)N)NC(=O)[C@H](CC(=O)O)NC(=O)[C@H](Cc1ccccc1)NC(=O)[C@@H](NC(=O)[C@@H](N)C(C)C)[C@@H](C)O)C(C)C)C(=O)O`, the Ki amounted to 1130 nM.

In turn, `CC(C)C[C@H](NC(=O)[C@H](CCCNC(=N)N)NC(=O)[C@@H](N)Cc1ccc(O)cc1)C(=O)NCC(=O)N[C@@H](C)C(=O)N[C@H](C(=O)N[C@@H](CCC(N)=O)C(=O)N[C@@H](CC(N)=O)C(=O)N[C@@H](CCC(=O)O)C(=O)N[C@H](C(=O)O)C(C)C)C(C)C` registered a Ki of 217 nM.

`CC(C)[C@H](NC(=O)CNC(=O)[C@H](CO)NC(=O)[C@H](C)NC(=O)[C@H](CCCNC(=N)N)NC(=O)[C@H](CS)NC(=O)[C@H](CCCNC(=N)N)NC(=O)[C@H](CCCNC(=N)N)NC(=O)[C@@H](N)Cc1ccc(O)cc1)C(=O)O` showed a Ki of 634 nM.

In turn, `CC(C)C[C@H](NC(=O)[C@@H](NC(=O)[C@H](CCCCN)NC(=O)[C@H](Cc1ccc(O)cc1)NC(=O)CNC(=O)[C@H](CCC(N)=O)NC(=O)[C@H](C)NC(=O)[C@H](C)N)C(C)C)C(=O)N[C@H](C(=O)O)C(C)C` (H-AAQGYKVLV-OH; N-terminus and C-terminus assumed) registered a Ki of 6320 nM.

For `CC(C)C[C@H](NC(=O)[C@H](C)NC(=O)[C@H](CCCNC(=N)N)NC(=O)[C@H](C)N)C(=O)N[C@@H](C)C(=O)N[C@@H](Cc1c[nH]cn1)C(=O)NCC(=O)N[C@H](C(=O)N[C@@H](CCCNC(=N)N)C(=O)N[C@H](C(=O)O)C(C)C)C(C)C` (H-ARALAHGVRV-OH; N-terminus and C-terminus assumed), the Ki is 9880 nM.

Regarding `CC(C)[C@H](NC(=O)[C@H](CCCNC(=N)N)NC(=O)[C@H](CCC(N)=O)NC(=O)CNC(=O)[C@@H]1CCCN1C(=O)[C@H](CO)NC(=O)[C@H](Cc1ccc(O)cc1)NC(=O)[C@H](CCC(N)=O)NC(=O)[C@@H](N)Cc1ccccc1)C(=O)O` (H-FQYSPGQRV-OH), the Ki amounted to 387 nM.

Consider `CC(C)[C@H](NC(=O)CNC(=O)[C@H](CCCNC(=N)N)NC(=O)[C@@H](NC(=O)[C@H](CS)NC(=O)[C@@H](NC(=O)[C@H](C)NC(=O)[C@H](C)NC(=O)[C@H](CCCNC(=N)N)NC(=O)[C@@H](N)Cc1ccccc1)C(C)C)[C@@H](C)O)C(=O)O` (H-FRAAVCTRGV-OH; N-terminus and C-terminus assumed), for which the Ki was 486 nM.

Regarding `CC[C@H](C)[C@H](NC(=O)[C@H](CC(C)C)NC(=O)[C@H](CCCNC(=N)N)NC(=O)[C@H](C)NC(=O)[C@@H]1CCCN1C(=O)[C@H](CCCCN)NC(=O)[C@H](CCCNC(=N)N)NC(=O)CN)C(=O)N[C@H](C(=O)O)C(C)C` (H-GRKPARLIV-OH; N-terminus and C-terminus assumed), the Ki is 2040 nM.

For the compound `CC[C@H](C)[C@H](N)C(=O)N[C@@H](CCCNC(=N)N)C(=O)N[C@@H](CO)C(=O)N[C@@H](CC(C)C)C(=O)N[C@H](C(=O)N[C@@H](CCC(=O)O)C(=O)N[C@@H](CCCNC(=N)N)C(=O)N[C@@H](CC(C)C)C(=O)N[C@@H](Cc1ccc(O)cc1)C(=O)N[C@H](C(=O)O)[C@@H](C)CC)[C@@H](C)O` (H-IRSLTERLYI-OH; N-terminus and C-terminus assumed), the Ki is 6220 nM.

The compound `CC[C@H](C)[C@H](NC(=O)[C@H](CC(C)C)NC(=O)[C@H](CCCNC(=N)N)NC(=O)[C@H](C)NC(=O)[C@@H]1CCCN1C(=O)[C@H](CCCCN)NC(=O)[C@@H](N)CCCNC(=N)N)C(=O)N[C@H](C(=O)N[C@@H](Cc1ccccc1)C(=O)O)C(C)C` (H-RKPARLIVF-OH; N-terminus and C-terminus assumed) came in with a Ki of 8280 nM.

With `CC[C@H](C)[C@H](NC(=O)[C@H](CCC(N)=O)NC(=O)CNC(=O)CNC(=O)CNC(=O)[C@@H]1CCCN1C(=O)[C@H](Cc1ccccc1)NC(=O)[C@H](CCCCN)NC(=O)[C@@H](N)C(C)C)C(=O)N[C@H](C(=O)O)C(C)C` (H-VKFPGGGQIV-OH; N-terminus and C-terminus assumed), the Ki worked out at 417 nM.

In the case of `CC(C)C[C@H](NC(=O)[C@@H](NC(=O)[C@H](CCCCN)NC(=O)[C@H](Cc1ccc(O)cc1)NC(=O)CNC(=O)[C@H](CCC(N)=O)NC(=O)[C@H](C)NC(=O)[C@H](C)NC(=O)[C@@H](N)Cc1ccc(O)cc1)C(C)C)C(=O)N[C@H](C(=O)O)C(C)C` (H-YAAQGYKVLV-OH; N-terminus and C-terminus assumed), the affinity, expressed as Ki, was 9210 nM.

The target of the next experiment is HLA-A02 (Homo sapiens, UniProt P04439, D140Y/D185E/D98H/E176V/E277Q/G131W/G231S/I119V/I121R/I166T/I218V/L300P/L318F/N151K/N90K/P208A/P217A/Q86G/Q94H/R138H/R169H/T345S). The experiment is described as follows: Competition binding assay using soluble HLA class I.
Consider `CC(C)[C@H](NC(=O)[C@@H](NC(=O)[C@H](C)NC(=O)[C@H](CCC(N)=O)NC(=O)[C@@H](N)Cc1ccc(O)cc1)[C@@H](C)O)C(=O)N[C@@H](CS)C(=O)N[C@@H](C)C(=O)N[C@@H](CCCNC(=N)N)C(=O)N[C@@H](C)C(=O)O` (H-YQATVCARA-OH), for which the IC50 (in general, the concentration at which inhibition is half-maximal) is 20 nM and the affinity, expressed as Ki, was 20 nM.

For `CC(C)C[C@H](NC(=O)[C@H](C)NC(=O)[C@H](CC(C)C)NC(=O)[C@H](CC(C)C)NC(=O)[C@H](CC(C)C)NC(=O)[C@H](CC(C)C)NC(=O)[C@H](CC(C)C)NC(=O)[C@H](CC(C)C)NC(=O)[C@@H]1CCCN1)C(=O)O` [PLLLLLLAL] (H-PLLLLLLAL-OH), the Ki was 6550 nM.

In a further experiment the target is T2, DRB1*0101 (Homo sapiens, UniProt P01903+P01911, A100R/D57E/F55L/F60I/F76Y/I96L/L162R/M171V/P40L/Q125E/R42F/V115G/Y59C).
T2 construct: endogenous in cells; host or cells: cell lysate
Briefly: Competition binding assay using soluble HLA class II.
On to `CC[C@H](C)[C@H](NC(=O)[C@H](CC(C)C)NC(=O)[C@H](CC(=O)O)NC(=O)[C@H](C)NC(=O)[C@@H](N)CC(=O)O)C(=O)N[C@@H](CCC(=O)O)C(=O)N[C@@H](C)C(=O)N[C@@H](CC(N)=O)C(=O)N[C@@H](CC(C)C)C(=O)N[C@@H](CC(C)C)C(=O)N[C@@H](Cc1c[nH]c2ccccc12)C(=O)N[C@@H](CCCNC(=N)N)C(=O)N[C@@H](CCC(N)=O)C(=O)N[C@@H](CCC(=O)O)C(=O)N[C@@H](CCSC)C(=O)O`, for which the 50% inhibitory concentration (IC50) came out at 574 nM.

The compound `CSCC[C@H](NC(=O)[C@H](CC(C)C)NC(=O)[C@H](C)NC(=O)[C@H](CC(=O)O)NC(=O)[C@@H](NC(=O)[C@H](C)NC(=O)[C@@H](NC(=O)[C@@H](NC(=O)[C@@H](NC(=O)[C@@H](NC(=O)[C@@H](N)CC(=O)O)C(C)C)C(C)C)C(C)C)C(C)C)[C@@H](C)O)C(=O)N[C@H](C(=O)NCC(=O)N[C@@H](Cc1ccc(O)cc1)C(=O)N[C@H](C(=O)O)[C@@H](C)O)[C@@H](C)O` yielded an IC50 of 456 nM.

The compound `CC(C)[C@H](NC(=O)[C@H](CCCNC(=N)N)NC(=O)[C@H](CCC(N)=O)NC(=O)CNC(=O)[C@@H]1CCCN1C(=O)[C@H](CO)NC(=O)[C@H](Cc1ccc(O)cc1)NC(=O)[C@H](CCC(N)=O)NC(=O)[C@H](Cc1ccccc1)NC(=O)CNC(=O)[C@H](Cc1ccc(O)cc1)NC(=O)[C@H](CO)NC(=O)[C@H](CO)NC(=O)CN)C(=O)N[C@@H](CCC(=O)O)C(=O)O` yielded an IC50 of 11 nM.

As to `CC(C)C[C@H](NC(=O)[C@H](CC(N)=O)NC(=O)CNC(=O)[C@@H](NC(=O)[C@H](C)NC(=O)[C@H](Cc1ccc(O)cc1)NC(=O)[C@H](CC(N)=O)NC(=O)[C@@H](NC(=O)CN)C(C)C)[C@@H](C)O)C(=O)N1CCC[C@H]1C(=O)NCC(=O)N[C@@H](CS)C(=O)N[C@@H](CO)C(=O)N[C@@H](Cc1ccccc1)C(=O)N[C@@H](CO)C(=O)O`, the IC50 came to 4560 nM.

`CC(C)C[C@H](NC(=O)[C@H](C)NC(=O)CNC(=O)[C@H](C)NC(=O)[C@@H](NC(=O)CNC(=O)[C@H](C)NC(=O)CNC(=O)[C@H](Cc1ccc(O)cc1)NC(=O)CNC(=O)[C@H](C)NC(=O)[C@@H](N)CC(C)C)C(C)C)C(=O)N[C@H](C(=O)N[C@@H](C)C(=O)N[C@@H](Cc1ccccc1)C(=O)O)C(C)C`: the IC50 was 137 nM.

`CC(C)C[C@H](NC(=O)[C@H](Cc1c[nH]cn1)NC(=O)[C@H](C)NC(=O)[C@@H](NC(=O)[C@H](CCC(N)=O)NC(=O)[C@H](Cc1ccccc1)NC(=O)[C@@H](NC(=O)[C@H](CCC(N)=O)NC(=O)[C@@H]1CCCN1)[C@@H](C)O)C(C)C)C(=O)N[C@@H](Cc1c[nH]cn1)C(=O)N[C@@H](C)C(=O)N1CCC[C@H]1C(=O)N[C@H](C(=O)NCC(=O)N[C@@H](CO)C(=O)O)[C@@H](C)O` came in with an IC50 of 22 nM.

The compound `CC[C@H](C)[C@H](NC(=O)[C@@H]1CCCN1C(=O)[C@H](C)NC(=O)[C@H](CC(C)C)NC(=O)[C@H](CC(C)C)NC(=O)[C@H](CCCNC(=N)N)NC(=O)[C@H](Cc1c[nH]c2ccccc12)NC(=O)CNC(=O)[C@H](CCCCN)NC(=O)[C@@H](N)CO)C(=O)N[C@H](C(=O)N[C@@H](C)C(=O)N[C@@H](Cc1ccc(O)cc1)C(=O)N[C@@H](C)C(=O)N[C@@H](CCC(N)=O)C(=O)O)[C@@H](C)O` yielded an IC50 of 0.4 nM.
